# Data as given in patent US8598344B2, “CDKI pathway inhibitors and uses thereof” (Senex Biotechnology, priority 2009, dated 2013).
# Legend:
# MAPKAPK5 = molecular target: T1, MAPKAPK5 (Homo sapiens, UniProt Q8IW41); assay: KinomeScan competition binding assay; conditions: 10 μM compound
# T1 construct: purchased KinomeScan, a division of Ambit Biosciences
# T1 sequence (Q8IW41 1-473): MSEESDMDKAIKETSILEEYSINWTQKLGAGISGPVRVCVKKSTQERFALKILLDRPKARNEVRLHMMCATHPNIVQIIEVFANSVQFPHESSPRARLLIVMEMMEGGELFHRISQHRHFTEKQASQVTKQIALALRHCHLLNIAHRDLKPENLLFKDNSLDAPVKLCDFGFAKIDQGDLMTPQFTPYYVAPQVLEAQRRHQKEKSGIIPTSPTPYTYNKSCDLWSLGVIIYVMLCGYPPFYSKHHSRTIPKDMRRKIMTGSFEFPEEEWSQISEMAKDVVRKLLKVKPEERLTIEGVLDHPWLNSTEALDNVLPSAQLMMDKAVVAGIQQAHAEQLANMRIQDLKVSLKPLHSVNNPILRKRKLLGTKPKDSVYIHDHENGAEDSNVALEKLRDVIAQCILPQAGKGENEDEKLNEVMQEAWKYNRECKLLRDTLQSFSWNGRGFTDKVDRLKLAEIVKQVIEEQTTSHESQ
# Procedure, shortened: (§1)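 Binding, not catalytic activity, is measured here. Compound displacement of DNA-tagged kinase from an immobilized ligand directed at the ATP site is read by quantitative PCR and given as POC or Kd.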
# HIPK3 = molecular target: T2, HIPK3 (Homo sapiens, UniProt Q9H422); assay: KinomeScan competition binding assay; conditions: 10 μM compound
# T2 construct: purchased KinomeScan, a division of Ambit Biosciences
# Procedure, shortened: as §1
# MEK3 = molecular target: T3, MEK3 (Homo sapiens, UniProt P46734); assay: KinomeScan competition binding assay; conditions: 10 μM compound
# T3 construct: purchased KinomeScan, a division of Ambit Biosciences
# T3 sequence (P46734 1-347): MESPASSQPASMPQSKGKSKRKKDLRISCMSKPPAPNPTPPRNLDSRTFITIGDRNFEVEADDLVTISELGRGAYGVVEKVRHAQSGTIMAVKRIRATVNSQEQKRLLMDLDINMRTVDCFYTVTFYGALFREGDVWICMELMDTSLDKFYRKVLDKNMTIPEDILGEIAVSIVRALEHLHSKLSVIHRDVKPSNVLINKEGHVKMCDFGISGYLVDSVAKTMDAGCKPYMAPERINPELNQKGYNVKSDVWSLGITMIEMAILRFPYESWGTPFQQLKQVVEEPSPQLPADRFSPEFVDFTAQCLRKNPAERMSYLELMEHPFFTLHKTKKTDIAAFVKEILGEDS
# Procedure, shortened: as §1
# HIV-1 = conditions: read-out: EC50, decrease in fraction of HIV-infected (p24-positive) cells; day 5
# Method: HIV replication was assayed in a cell-to-cell model of HIV-1 transmission using chronically infected H9IIIB as donor cells cocultivated with uninfected CEM-ss leukemia cell line as recipient cells. 1 ml of RPMI1640 medium (+10% Fetal Bovine Serum+Penicillin/Streptomycin+glutamine) containing 10^4 H9IIIB cells was mixed with 1 ml of the same medium containing 10^6 CEM-ss cells. […] The suspended cells were placed into a 25 cm^2 flask and incubated at 37° C., 5% CO2. On day 3, the cells were counted with a light microscope and an hemocytometer after trypan blue staining, which was used to determine the fraction of viable (trypan blue negative) cells. On day 5, the fraction of HIV-infected cells was determined using the K57-FITC conjugated monoclonal antibody to the HIV p24 antigen. For this measurement, the cells in each flask were mixed, 1 ml of cell culture was removed from each flask and placed into round bottom centrifuge tubes. The cells were separated from the medium by centrifugation at 1500 RPM for 5 minutes, the supernatants were aspirated and discarded and the cell pellets suspended in a fixative. […] The final pellets were suspended in 0.5 ml of PBS and the percentage of HIV p24-positive cells was determined by FACS analysis.
# HCT116 = assay: Colon carcinoma cell proliferation, FACS count of live cells; format: cell-based, human; conditions: 72 hrs, 2.5, 5 or 10 μM
# Method: (§2) Inhibition of β-catenin, which is positively regulated by CDK8, was reported to inhibit proliferation of some colon carcinoma cell lines (Firestein et al., 2008). We have therefore determined the ability of compound 1 to inhibit the proliferation of several colon carcinoma cell lines, including human DLD1, HCT116, SW480 and murine C26. This analysis waqs carried out by incubating cells for 72 hrs in the presence of 0, 2.5, 5 or 10 μM compound 1, followed by FACS measurement of the number of live cells, as defined by the lack of uptake of membrane-impermeable dye propidium iodide.
# DLD1 cells = assay: as above; format: cell-based, human; conditions: 72 hrs; read-out: IC50, growth inhibition
# Method: as §2
# SW480 = assay: as above; format: cell-based, human; conditions: 72 hrs, 2.5, 5 or 10 μM
# Method: as §2
# T2 sequence (Q9H422 whole entry): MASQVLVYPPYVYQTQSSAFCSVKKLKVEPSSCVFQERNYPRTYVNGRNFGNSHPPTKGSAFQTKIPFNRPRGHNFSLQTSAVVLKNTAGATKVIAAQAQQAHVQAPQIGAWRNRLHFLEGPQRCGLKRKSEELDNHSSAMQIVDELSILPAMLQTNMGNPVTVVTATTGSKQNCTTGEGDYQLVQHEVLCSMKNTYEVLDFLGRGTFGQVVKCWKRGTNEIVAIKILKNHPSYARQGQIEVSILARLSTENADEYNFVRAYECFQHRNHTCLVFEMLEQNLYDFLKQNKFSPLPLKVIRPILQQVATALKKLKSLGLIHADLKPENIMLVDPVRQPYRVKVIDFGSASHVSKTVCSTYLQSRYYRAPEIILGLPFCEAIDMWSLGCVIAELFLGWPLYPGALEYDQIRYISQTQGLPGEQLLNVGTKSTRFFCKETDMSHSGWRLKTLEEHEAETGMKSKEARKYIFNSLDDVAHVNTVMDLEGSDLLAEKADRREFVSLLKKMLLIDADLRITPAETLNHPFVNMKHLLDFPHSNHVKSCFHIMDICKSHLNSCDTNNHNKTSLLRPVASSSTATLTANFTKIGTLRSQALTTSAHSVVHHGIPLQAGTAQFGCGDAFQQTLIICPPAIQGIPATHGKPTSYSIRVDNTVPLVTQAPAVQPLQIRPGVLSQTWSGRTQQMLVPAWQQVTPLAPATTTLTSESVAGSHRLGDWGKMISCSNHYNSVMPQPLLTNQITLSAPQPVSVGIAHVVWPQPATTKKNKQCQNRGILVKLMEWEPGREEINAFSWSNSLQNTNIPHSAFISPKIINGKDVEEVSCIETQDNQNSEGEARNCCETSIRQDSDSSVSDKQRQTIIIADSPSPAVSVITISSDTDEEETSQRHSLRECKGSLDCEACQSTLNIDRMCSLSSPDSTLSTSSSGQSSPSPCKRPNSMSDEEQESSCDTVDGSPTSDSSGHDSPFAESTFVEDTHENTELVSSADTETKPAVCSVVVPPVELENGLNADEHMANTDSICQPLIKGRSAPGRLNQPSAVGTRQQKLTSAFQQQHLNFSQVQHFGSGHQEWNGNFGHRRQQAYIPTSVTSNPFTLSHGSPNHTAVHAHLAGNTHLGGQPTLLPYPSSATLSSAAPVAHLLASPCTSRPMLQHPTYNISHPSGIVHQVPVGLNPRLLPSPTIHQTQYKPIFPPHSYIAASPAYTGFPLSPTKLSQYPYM
Compound,"POC ligand binding, MAPKAPK5 (MAPKAPK5) [POC]","POC ligand binding, HIPK3 (HIPK3) [POC]","POC ligand binding, MEK3 (MEK3) [POC]","POC ligand binding, MAPKAPK5 (MAPKAPK5; 10 µM) [POC]","POC ligand binding, HIPK3 (HIPK3; 10 µM) [POC]","POC ligand binding, MEK3 (MEK3; 10 µM) [POC]",EC50 (HIV-1) [µM],growth of colon carcinoma cell line (HCT116),IC50 (DLD1 cells) [µM],growth of colon carcinoma cell line (SW480)
N#Cc1ccc2ncnc(NCCc3ccc4ccccc4c3)c2c1 [compound 26],100,66,78,,,,,,,
N#Cc1ccc2ncnc(NCc3ccc4ccccc4c3)c2c1 [compound 14],,,,100,35,29,,,,
N#Cc1ccc2ncnc(NCc3ccc4ccccc4c3)c2c1 [compound 43],,,,85,42,64,,,,
CCCNc1ncnc2ccc(N3CCOCC3)cc12 [compound 46],91,34,100,,,,,,,
N#Cc1ccc2ncnc(NCc3ccc(Cl)cc3)c2c1 [compound 20],92,28,76,,,,,,,
CC(C)CNc1ncnc2ccc(C(F)(F)F)cc12 [compound 45],100,28,71,,,,,,,
COc1ccc2ncnc(NCCc3ccccc3)c2c1 [compound 44],94,53,72,,,,,,,
N#Cc1ccc2ncnc(NCCc3ccccc3)c2c1 [compound 1],15,18,18,,,,0.58,inhibited the growth,~5,inhibited the growth
